Experimental data reported in PMC9870012 (Journal of Enzyme Inhibition and Medicinal Chemistry, 2023).

Key:
human meprin α = biological target: T1, human meprin α (Homo sapiens, UniProt Q16819); assay type: biochemical; conditions: for Ki: Ki(app) Meprin α, geometric mean of three independent experiments with standard deviation factor; for SF: selectivity factor (Ki(app) meprin β/Ki(app) meprin α): meprin α over meprin β; for reduction of the meprin α selectivity by factor: compared to 16a
T1 sequence (Q16819 66-746): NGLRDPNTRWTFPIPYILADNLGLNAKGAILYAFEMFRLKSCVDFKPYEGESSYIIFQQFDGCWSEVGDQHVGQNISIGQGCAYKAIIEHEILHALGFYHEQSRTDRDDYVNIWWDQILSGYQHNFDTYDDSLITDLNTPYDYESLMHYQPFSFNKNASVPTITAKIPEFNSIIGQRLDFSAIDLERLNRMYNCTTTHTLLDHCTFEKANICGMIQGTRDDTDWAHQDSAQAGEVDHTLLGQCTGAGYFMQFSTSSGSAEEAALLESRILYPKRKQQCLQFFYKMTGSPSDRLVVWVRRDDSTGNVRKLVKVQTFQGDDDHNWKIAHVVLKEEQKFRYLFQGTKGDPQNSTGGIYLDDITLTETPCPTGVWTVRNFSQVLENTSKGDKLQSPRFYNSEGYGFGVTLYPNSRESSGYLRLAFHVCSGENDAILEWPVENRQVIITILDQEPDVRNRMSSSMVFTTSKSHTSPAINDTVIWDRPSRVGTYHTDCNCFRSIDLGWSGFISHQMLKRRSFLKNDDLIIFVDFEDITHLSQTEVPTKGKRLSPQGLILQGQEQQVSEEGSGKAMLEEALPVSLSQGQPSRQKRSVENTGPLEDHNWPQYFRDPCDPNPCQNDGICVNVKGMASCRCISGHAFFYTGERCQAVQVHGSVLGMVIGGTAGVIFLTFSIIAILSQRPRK

human meprin β = biological target: T2, human meprin β (Homo sapiens, UniProt Q16820); assay type: biochemical; conditions: for Ki: Ki(app) Meprin β, geometric mean of three independent experiments with standard deviation factor
T2 sequence (Q16820 62-701): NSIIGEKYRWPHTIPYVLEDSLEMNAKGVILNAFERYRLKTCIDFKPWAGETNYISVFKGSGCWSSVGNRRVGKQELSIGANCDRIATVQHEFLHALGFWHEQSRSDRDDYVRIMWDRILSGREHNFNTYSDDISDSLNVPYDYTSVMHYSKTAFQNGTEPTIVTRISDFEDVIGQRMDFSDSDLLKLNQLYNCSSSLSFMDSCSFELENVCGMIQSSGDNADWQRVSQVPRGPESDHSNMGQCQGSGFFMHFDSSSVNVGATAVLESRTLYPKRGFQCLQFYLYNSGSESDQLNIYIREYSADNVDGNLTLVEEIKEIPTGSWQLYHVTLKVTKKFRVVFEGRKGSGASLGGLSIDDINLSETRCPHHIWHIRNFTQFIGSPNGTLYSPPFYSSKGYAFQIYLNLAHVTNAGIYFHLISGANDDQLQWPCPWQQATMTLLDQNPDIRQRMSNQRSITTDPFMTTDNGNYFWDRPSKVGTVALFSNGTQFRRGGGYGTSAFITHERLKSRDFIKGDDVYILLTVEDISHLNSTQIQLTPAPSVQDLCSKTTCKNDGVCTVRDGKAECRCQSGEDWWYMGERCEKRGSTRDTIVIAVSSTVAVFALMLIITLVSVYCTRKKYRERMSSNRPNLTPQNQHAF

Ki (human meprin α) [nM]	SF: selectivity factor (Ki(app) meprin β/Ki(app) meprin α) (human meprin α)	Ki (human meprin β) [nM]	reduction of the meprin α selectivity by factor (human meprin α)	increased inhibition of meprin β by factor (human meprin β; in comparison to the N-phenyl pyrazole 21b)	improvement in activity against meprin β by factor (human meprin β; compared to 7a)	SMILES
9.6	1	11.2	–	–	–	O=C(Cc1c(-c2ccc(C(=O)O)cc2)n[nH]c1-c1ccc(Cl)c(O)c1F)NO [16h, 4-[5-(4-Chloro-2-fluoro-3-hydroxy-phenyl)-4-[2-(hydroxyamino)-2-oxo-ethyl]-1H-pyrazol-3-yl]benzoic acid]
5	87	437	–	–	–	Cn1nc(-c2ccccc2)c(CC(=O)NO)c1-c1ccccc1 [21a, 2-(1-Methyl-3,5-diphenyl-pyrazol-4-yl)ethanehydroxamic acid]
3.1	15	–	10–20	–	–	O=C(Cc1c(-c2ccc3c(c2)OCO3)n[nH]c1-c1cccc(C(=O)O)c1)NO [16e, 3-[3-(1,3-Benzodioxol-5-yl)-4-[2-(hydroxyamino)-2-oxo-ethyl]-1H-pyrazol-5-yl)benzoic acid]
–	1	–	–	–	–	O=C(Cc1c(-c2cccc(C(=O)O)c2)[nH]nc1[C@H]1CC[C@H](C(=O)O)CC1)NO [16l, 3-[3-(Trans-4-Carboxycyclohexyl)-4-[2-(hydroxyamino)-2-oxo-ethyl]-1H-pyrazol-5-yl]benzoic acid]
–	1	14.5	–	–	–	O=C(Cc1c(-c2cccc(C(=O)O)c2)n[nH]c1-c1cccc(C(=O)O)c1)NO [16b, 3-[3-(3-Carboxyphenyl)-4-[2-(hydroxyamino)-2-oxo-ethyl]-1H-pyrazol-5-yl]benzoic acid]
4	46	182	–	3	–	O=C(Cc1c(-c2ccccc2)nn(-c2ccc(C(=O)O)cc2)c1-c1ccccc1)NO [21d, 4-[4-[2-(Hydroxyamino)-2-oxo-ethyl]-3,5-diphenyl-pyrazol-1-yl]benzoic acid]
0.4	13	5.2	–	–	–	O=C(Cc1c([C@@H]2CCCC[C@@H]2C(=O)O)n[nH]c1-c1cccc(C(=O)O)c1)NO (relative stereo) [16k, 3-[4-[2-(Hydroxyamino)-2-oxo-ethyl]-3-[cis-2-carboxycyclohexyl]-1H-pyrazol-5-yl]benzoic acid]
–	2	–	–	–	–	O=C(Cc1c(-c2ccc(C(=O)O)cc2)n[nH]c1-c1ccc(C(=O)O)cc1)NO [16c, 4-[3-(4-Carboxyphenyl)-4-[2-(hydroxyamino)-2-oxo-ethyl]-1H-pyrazol-5-yl]benzoic acid]
20.3	2	32.5	–	–	–	O=C(Cc1c(-c2ccc(C(=O)O)cc2)n[nH]c1-c1cccc(C(=O)O)c1)NO [16g, 3-[3-(4-Carboxyphenyl)-4-[2-(hydroxyamino)-2-oxo-ethyl]-1H-pyrazol-5-yl]benzoic acid]
10.5	9	–	10–20	–	–	O=C(Cc1c(-c2ccc3c(c2)OCO3)n[nH]c1-c1ccc(C(=O)O)cc1)NO [16f, 4-[3-(1,3-Benzodioxol-5-yl)-4-[2-(hydroxyamino)-2-oxo-ethyl]-1H-pyrazol-5-yl)benzoic acid]
4.2	3	–	–	–	–	O=C(Cc1c(-c2ccc(Cl)c(O)c2F)n[nH]c1-c1ccc(Cl)c(O)c1F)NO [16d, 2-[3,5-Bis(4-chloro-2-fluoro-3-hydroxyphenyl)-1H-pyrazol-4-yl]ethanehydroxamic acid]
5.1	1	–	–	–	–	O=C(Cc1c(-c2cccc(C(=O)O)c2)n[nH]c1-c1ccc(Cl)c(O)c1F)NO [16i, 3-[5-(4-Chloro-2-fluoro-3-hydroxy-phenyl)-4-[2-(hydroxyamino)-2-oxo-ethyl]-1H-pyrazol-3-yl]benzoic acid]

Continued, compound first:

SMILES	Ki (human meprin α) [nM]	SF: selectivity factor (Ki(app) meprin β/Ki(app) meprin α) (human meprin α)	Ki (human meprin β) [nM]	reduction of the meprin α selectivity by factor (human meprin α)	increased inhibition of meprin β by factor (human meprin β; in comparison to the N-phenyl pyrazole 21b)	improvement in activity against meprin β by factor (human meprin β; compared to 7a)
O=C(Cc1c(-c2ccccc2)[nH]nc1[C@H]1CC[C@H](C(=O)O)CC1)NO [14s, Trans-4-[4-[2-(hydroxyamino)-2-oxo-ethyl]-5-phenyl-1H-pyrazol-3-yl]cyclohexanecarboxylic acid]	11.6	8	–	–	–	–
O=C(Cc1c(Cc2ccccc2)n[nH]c1-c1ccccc1)NO [14b, 2-(3-Benzyl-5-phenyl-1H-pyrazol-4-yl)ethanehydroxamic acid]	–	25	–	–	–	–
Cc1n[nH]c(-c2ccccc2)c1CC(=O)NO [14a, 2-(3-Methyl-5-phenyl-1H-pyrazol-4-yl)ethanehydroxamic acid]	–	7	–	–	–	–
N#Cc1cccc(-c2n[nH]c(-c3ccccc3)c2CC(=O)NO)c1 [14h, 2-[3-(3-Cyanophenyl)-5-phenyl-1H-pyrazol-4-yl]ethanehydroxamic acid]	4.8	67	–	–	–	–
O=C(Cc1c(-c2cccc(-c3nnn[nH]3)c2)n[nH]c1-c1ccccc1)NO [14p, 2-[5-Phenyl-3-[3-(1H-tetrazol-5-yl)phenyl]-1H-pyrazol-4-yl]ethanehydroxamic acid]	0.7	10	6.7	–	–	16
O=C(Cc1c(-c2ccccc2)[nH]nc1[C@H]1CC[C@@H](C(=O)O)CC1)NO [14t, Cis-4-[4-[2-(hydroxyamino)-2-oxo-ethyl]-5-phenyl-1H-pyrazol-3-yl]cyclohexanecarboxylic acid]	–	4	–	–	–	–
N#Cc1ccc(-c2n[nH]c(-c3ccccc3)c2CC(=O)NO)cc1 [14i, 2-[3-(4-Cyanophenyl)-5-phenyl-1H-pyrazol-4-yl]ethanehydroxamic acid]	13.6	71	–	–	–	–
O=C(Cc1c(-c2ccc(Cl)c(O)c2F)n[nH]c1-c1ccccc1)NO [14l, 2-[3-(4-Chloro-2-fluoro-3-hydroxyphenyl)-5-phenyl-1H-pyrazol-4-yl]ethanehydroxamic acid]	2.2	31	–	–	–	–
O=C(Cc1c(C2CCCC(C(=O)O)C2)n[nH]c1-c1ccccc1)NO (stereo not shown) [14r, 3-[4-[2-(Hydroxyamino)-2-oxo-ethyl]-5-phenyl-1H-pyrazol-3-yl]cyclohexanecarboxylic acid]	1.4	39	–	–	–	–
O=C(Cc1c(-c2cccc(C(=O)O)c2)n[nH]c1-c1ccccc1)NO [14j, 3-[4-[2-(Hydroxyamino)-2-oxo-ethyl]-5-phenyl-1H-pyrazol-3-yl]benzoic acid]	7.5	6	–	–	–	–
O=C(Cc1c([C@H]2CCCC[C@H]2C(=O)O)n[nH]c1-c1ccccc1)NO (relative stereo) [14q, Cis-2-[4-[2-(hydroxyamino)-2-oxo-ethyl]-5-phenyl-1H-pyrazol-3-yl]cyclohexanecarboxylic acid]	0.3	127	32.6	–	–	–
O=C(Cc1c(-c2ccc(C(=O)O)cc2)n[nH]c1-c1ccccc1)NO [14k, 4-[4-[2-(Hydroxyamino)-2-oxo-ethyl]-5-phenyl-1H-pyrazol-3-yl]benzoic acid]	17.2	7	–	–	–	–
O=C(Cc1c(-c2cc(O)no2)n[nH]c1-c1ccccc1)NO [14n, 2-[3-(3-Hydroxyisoxazol-5-yl)-5-phenyl-1H-pyrazol-4-yl]ethanehydroxamic acid]	–	1	–	–	–	–
O=C(Cc1c(C2CCCC2)n[nH]c1-c1ccccc1)NO [14c, 2-(3-Cyclopentyl-5-phenyl-1H-pyrazol-4-yl)ethanehydroxamic acid]	5.6	53	–	–	–	–
O=C(Cc1c(-c2c[nH]nc2C(F)(F)F)n[nH]c1-c1ccccc1)NO [14o, 2-[5-Phenyl-3-[3-(trifluoromethyl)-1H-pyrazol-4-yl]-1H-pyrazol-4-yl]ethanehydroxamic acid]	1.6	55	–	–	–	–
COc1ccc(-c2n[nH]c(-c3ccccc3)c2CC(=O)NO)cc1 [14e, 2-[3-(4-Methoxyphenyl)-5-phenyl-1H-pyrazol-4-yl]ethanehydroxamic acid]	1.3	48	–	–	–	–
